Data reported in ChEMBL document CHEMBL4715697, “Synthesis and biological activity of benzamide DNA minor groove binders” (2016).

Tests used:
Format in all cases: functional
Conditions in all cases: read-out: Activity
[1] = tested on: HL-60(TB); assay: Growth inhibition of human HL-60(TB) cells assessed as cell growth at 10 uM incubated for 48 hrs by sulforhodamine B assay relative to control
[2] = tested on: RPMI-8226; assay: Growth inhibition of human RPMI-8226 cells assessed as cell growth at 10 uM incubated for 48 hrs by sulforhodamine B assay relative to control
[3] = tested on: HOP-62; assay: Growth inhibition of human HOP-62 cells assessed as cell growth at 10 uM incubated for 48 hrs by sulforhodamine B assay relative to control
[4] = tested on: NCI-H226; assay: Growth inhibition of human NCI-H226 cells assessed as cell growth at 10 uM incubated for 48 hrs by sulforhodamine B assay relative to control
[5] = tested on: NCI-H322M; assay: Growth inhibition of human NCI-H322M cells assessed as cell growth at 10 uM incubated for 48 hrs by sulforhodamine B assay relative to control
[6] = tested on: NCI-H522; assay: Growth inhibition of human NCI-H522 cells assessed as cell growth at 10 uM incubated for 48 hrs by sulforhodamine B assay relative to control
[7] = tested on: HCC 2998; assay: Growth inhibition of human HCC 2998 cells assessed as cell growth at 10 uM incubated for 48 hrs by sulforhodamine B assay relative to control
[8] = tested on: HCT-116; assay: Growth inhibition of human HCT-116 cells assessed as cell growth at 10 uM incubated for 48 hrs by sulforhodamine B assay relative to control
[9] = tested on: HCT-15; assay: Growth inhibition of human HCT-15 cells assessed as cell growth at 10 uM incubated for 48 hrs by sulforhodamine B assay relative to control
[10] = tested on: HT-29; assay: Growth inhibition of human HT-29 cells assessed as cell growth at 10 uM incubated for 48 hrs by sulforhodamine B assay relative to control
[11] = tested on: KM12; assay: Growth inhibition of human KM12 cells assessed as cell growth at 10 uM incubated for 48 hrs by sulforhodamine B assay relative to control
[12] = tested on: SF-268; assay: Growth inhibition of human SF-268 cells assessed as cell growth at 10 uM incubated for 48 hrs by sulforhodamine B assay relative to control
[13] = tested on: SF-539; assay: Growth inhibition of human SF-539 cells assessed as cell growth at 10 uM incubated for 48 hrs by sulforhodamine B assay relative to control
[14] = tested on: SNB-19; assay: Growth inhibition of human SNB-19 cells assessed as cell growth at 10 uM incubated for 48 hrs by sulforhodamine B assay relative to control
[15] = tested on: SNB-75; assay: Growth inhibition of human SNB-75 cells assessed as cell growth at 10 uM incubated for 48 hrs by sulforhodamine B assay relative to control
[16] = tested on: U-251; assay: Growth inhibition of human U-251 cells assessed as cell growth at 10 uM incubated for 48 hrs by sulforhodamine B assay relative to control
[17] = tested on: LOX IMVI; assay: Growth inhibition of human LOX IMVI cells assessed as cell growth at 10 uM incubated for 48 hrs by sulforhodamine B assay relative to control
[18] = tested on: Malme-3M; assay: Growth inhibition of human Malme-3M cells assessed as cell growth at 10 uM incubated for 48 hrs by sulforhodamine B assay relative to control
[19] = tested on: M14; assay: Growth inhibition of human M14 cells assessed as cell growth at 10 uM incubated for 48 hrs by sulforhodamine B assay relative to control
[20] = tested on: MDA-MB-435; assay: Growth inhibition of human MDA-MB-435 cells assessed as cell growth at 10 uM incubated for 48 hrs by sulforhodamine B assay relative to control
[21] = tested on: SK-MEL-2; assay: Growth inhibition of human SK-MEL-2 cells assessed as cell growth at 10 uM incubated for 48 hrs by sulforhodamine B assay relative to control
[22] = tested on: SK-MEL-28; assay: Growth inhibition of human SK-MEL-28 cells assessed as cell growth at 10 uM incubated for 48 hrs by sulforhodamine B assay relative to control
[23] = tested on: SK-MEL-5; assay: Growth inhibition of human SK-MEL-5 cells assessed as cell growth at 10 uM incubated for 48 hrs by sulforhodamine B assay relative to control
[24] = tested on: UACC-257; assay: Growth inhibition of human UACC-257 cells assessed as cell growth at 10 uM incubated for 48 hrs by sulforhodamine B assay relative to control
[25] = tested on: UACC-62; assay: Growth inhibition of human UACC-62 cells assessed as cell growth at 10 uM incubated for 48 hrs by sulforhodamine B assay relative to control
[26] = tested on: IGROV-1; assay: Growth inhibition of human IGROV-1 cells assessed as cell growth at 10 uM incubated for 48 hrs by sulforhodamine B assay relative to control
[27] = tested on: OVCAR-3; assay: Growth inhibition of human OVCAR-3 cells assessed as cell growth at 10 uM incubated for 48 hrs by sulforhodamine B assay relative to control
[28] = tested on: OVCAR-5; assay: Growth inhibition of human OVCAR-5 cells assessed as cell growth at 10 uM incubated for 48 hrs by sulforhodamine B assay relative to control
[29] = tested on: OVCAR-8; assay: Growth inhibition of human OVCAR-8 cells assessed as cell growth at 10 uM incubated for 48 hrs by sulforhodamine B assay relative to control
[30] = tested on: 786-0; assay: Growth inhibition of human 786-0 cells assessed as cell growth at 10 uM incubated for 48 hrs by sulforhodamine B assay relative to control
[31] = tested on: ACHN; assay: Growth inhibition of human ACHN cells assessed as cell growth at 10 uM incubated for 48 hrs by sulforhodamine B assay relative to control
[32] = tested on: CAKI-1; assay: Growth inhibition of human CAKI-1 cells assessed as cell growth at 10 uM incubated for 48 hrs by sulforhodamine B assay relative to control
[33] = tested on: SN12C; assay: Growth inhibition of human SN12C cells assessed as cell growth at 10 uM incubated for 48 hrs by sulforhodamine B assay relative to control
[34] = tested on: TK-10; assay: Growth inhibition of human TK-10 cells assessed as cell growth at 10 uM incubated for 48 hrs by sulforhodamine B assay relative to control
[35] = tested on: UO-31; assay: Growth inhibition of human UO-31 cells assessed as cell growth at 10 uM incubated for 48 hrs by sulforhodamine B assay relative to control
[36] = tested on: PC-3; assay: Growth inhibition of human PC-3 cells assessed as cell growth at 10 uM incubated for 48 hrs by sulforhodamine B assay relative to control
[37] = tested on: MCF7; assay: Growth inhibition of human MCF7 cells assessed as cell growth at 10 uM incubated for 48 hrs by sulforhodamine B assay relative to control
[38] = tested on: BT-549; assay: Growth inhibition of human BT-549 cells assessed as cell growth at 10 uM incubated for 48 hrs by sulforhodamine B assay relative to control
[39] = tested on: T47D; assay: Growth inhibition of human T47D cells assessed as cell growth at 10 uM incubated for 48 hrs by sulforhodamine B assay relative to control
[40] = tested on: MDA-MB-468; assay: Growth inhibition of human MDA-MB-468 cells assessed as cell growth at 10 uM incubated for 48 hrs by sulforhodamine B assay relative to control

Compound	growth at 10 µM [1] [%]	growth at 10 µM [2] [%]	growth at 10 µM [3] [%]	growth at 10 µM [4] [%]	growth at 10 µM [5] [%]	growth at 10 µM [6] [%]	growth at 10 µM [7] [%]	growth at 10 µM [8] [%]	growth at 10 µM [9] [%]	growth at 10 µM [10] [%]	growth at 10 µM [11] [%]	growth at 10 µM [12] [%]	growth at 10 µM [13] [%]	growth at 10 µM [14] [%]	growth at 10 µM [15] [%]	growth at 10 µM [16] [%]	growth at 10 µM [17] [%]	growth at 10 µM [18] [%]	growth at 10 µM [19] [%]	growth at 10 µM [20] [%]	further results
CC(=O)Nc1cc(CO)cc(NC(=O)c2ccc(C(=O)Nc3cc(CO)cc(NC(C)=O)c3)cc2)c1	107	94.5	102	94.9	103	94.1	99.6	98.6	104	107	136	115	99.6	102	102	112	96.8	113	104	102	growth at 10 µM [21]: 93.3%; growth at 10 µM [22]: 117%; growth at 10 µM [23]: 104%; growth at 10 µM [24]: 106%; growth at 10 µM [25]: 103%; growth at 10 µM [26]: 103%; growth at 10 µM [27]: 139%; growth at 10 µM [28]: 106%; growth at 10 µM [29]: 107%; growth at 10 µM [30]: 103%; growth at 10 µM [31]: 109%; growth at 10 µM [32]: 117%; growth at 10 µM [33]: 97.4%; growth at 10 µM [34]: 103%; growth at 10 µM [35]: 97.1%; growth at 10 µM [36]: 97.9%; growth at 10 µM [37]: 97.4%; growth at 10 µM [38]: 99.5%; growth at 10 µM [39]: 92%; growth at 10 µM [40]: 101%
CC(=O)Nc1cc(CO)cc(NC(=O)c2ccc(NC(=O)CCCN3CCOCC3)cc2)c1	106	93.6	101	95.6	107	93.4	102	104	103	104	109	110	97.6	99.4	92.5	105	110	130	103	100	growth at 10 µM [21]: 101%; growth at 10 µM [22]: 113%; growth at 10 µM [23]: 100%; growth at 10 µM [24]: 106%; growth at 10 µM [25]: 98.3%; growth at 10 µM [26]: 126%; growth at 10 µM [27]: 121%; growth at 10 µM [28]: 106%; growth at 10 µM [29]: 105%; growth at 10 µM [30]: 97%; growth at 10 µM [31]: 109%; growth at 10 µM [32]: 110%; growth at 10 µM [33]: 97%; growth at 10 µM [34]: 93.1%; growth at 10 µM [35]: 86.6%; growth at 10 µM [36]: 104%; growth at 10 µM [37]: 102%; growth at 10 µM [38]: 99.8%; growth at 10 µM [39]: 98.7%; growth at 10 µM [40]: 97.8%
